Source: PMC12637173, “Investigation on LASSBio‐1971 and LASSBio‐1974 Cellular Cytotoxic Mechanism and Their Comparative DMPK Profile” (Archiv Der Pharmazie, 2025)
Read-outs that look alike come from different tables or passages of the source.

Tests used:
[1] = tested on: NCI‐H1975 (EGFRL858R/T790M); experiment: Cell viability by sulforhodamine B (SRB) assay, NCI-H1975; type: cell-based; conditions: Homo sapiens, 72 h, read-out: cytotoxic activity CC50, NCI‐H1975 (EGFRL858R/T790M)
Protocol: (§3) All cell lines were harvested at 37°C and 5% CO2 atmosphere humid incubator.
(§4) Cells were plated at 1 × 10^4 to 3 × 10^4 cells/well and seeded in a 96‐well plate. After 16–24 h of cell acclimatization, compounds were added at 0.003–100 µM concentrations (1% DMSO as vehicle). The experimental procedure was handled as described by Vichai and Kirtikara [63]. After incubation, cells were fixed with trichloroacetic acid (TCA) (10% m/v) for 1 h at 4°C. SRB (0.004% w/v in acetic acid 1%) was added for 30 min and washed with acetic acid 1%.

PC‐9 (EGFRL858R) [2] = experiment: Apoptosis by flow cytometry (Muse Annexin V & Dead Cell Kit); type: cell-based, human; conditions: PC‐9, 72 h
Protocol: (§1) PC‐9 (EGFRL858R) cell line was seeded at 1 × 10^5 cells/well in a 24‐well plate. […] All flow cytometry assays were performed using Guava Muse Cell Analyzer (Cytek Biosciences) following each kit user's guide provided by the manufacturer. Muse Cell Cycle Kit (catalog no. MCH100106) was chosen to evaluate cell cycle arresting. Apoptosis features were evaluated using Muse Annexin V & Dead Cell Kit (catalog no. MCH100105), as well as inactivation of EGFR using Muse EGFR‐RTK Activation Dual Detection Kit (catalog no. MCH200102). Statistical analysis was performed using one‐way ANOVA on data collected in duplicate from at least two independent experiments (n ≥ 2), employing GraphPad Prism software (version 8.0).

PC‐9 (EGFRL858R) [3] = experiment: Cell viability by MTT assay, PC-9; conditions: Homo sapiens; for IC50: read-out: cytotoxic activity, PC-9 (EGFRL858R)
Protocol: as §3
(§5) Cells were plated at 1 × 10^4 to 3 × 10^4 cells/well and seeded in a 96‐well plate. After 16–24 h of cell acclimatization, compounds were added at 0.003–100 µM concentrations (1% DMSO vehicle). After 72 h, treatment was interrupted to measure cell viability using MTT (3‐(4,5‐dimethylthiazol‐2‐yl)‐2,5‐diphenyltetrazolium bromide) (50 µg/mL) [62]. Formazan formed by viable cells was solubilized after 4 h incubation with SDS/HCl solution (0.1 g/mL) and read at 570 nm in spectrophotometer.

PC‐9 (EGFRL858R) [4] = experiment: Cell viability by sulforhodamine B (SRB) assay, PC-9; conditions: Homo sapiens, 72 h, read-out: cytotoxic activity CC50, PC‐9 (EGFRL858R)
Protocol: as §3, §4

PAMPA‐GIT = type: in vitro ADME; conditions: PAMPA‐GIT
Protocol: (§2) The lipid mixture that impregnates the filter has a different constitution for the permeability tests for the BBB (brain lipid from pig extract in n‐dodecane) and the GIT (L‐α soy phosphatidylcholine in n‐dodecane). The optical density values obtained in the reading at each selected wavelength, for each of the compounds, were analyzed in comparison with the values of several controls within a calibration curve (≥ 7 drugs). In the case of the BBB, these values were used to elaborate an equation and determine the permeability coefficient (Pe), while GIT used absorbed fraction (Fa%).

EGFRL858R/T790M = tested on: EGFRL858R/T790M; design: method as in PMID 30626888; conditions: in vitro enzymatic model; cited from earlier work
EGFRL858R = tested on: EGFRL858R; design: method as in PMID 30626888; conditions: in vitro enzymatic model; cited from earlier work
[5] = Conjugation with glutathione in rat liver microsomes; type: in vitro ADME; conditions: RLM 1 mg/mL, 10 μM, 2 mM GSH, 60 min, LC/MS/MS
Protocol: Incubation with pooled RLMs (1 mg/mL protein) was conducted in 50 mM potassium phosphate buffer (pH 7.4) at 37°C in an incubator for 60 min. LASSBio‐1971 (1) and P‐chlorophenyl isocyanate (10 μM) and 2 mM GSH were added to the buffer. The incubation was initiated by NADPH‐generating system consisting of 40 mM NADP^+, 350 mM glucose‐6‐phosphate, 5 units/mL glucose‐6‐phosphate dehydrogenase, and 130 mM MgCl2. The incubation was terminated at 60 min by the addition of 1 mL of ACN (with 6% of formic acid, with a total volume of 1.25 mL). The quenched sample was then centrifuged at 10,500 × g for 15 min, and 1 mL of the supernatant was collected to be injected into the Q‐Exactive Plus ESI MS System (Thermo Scientific, USA).

[6] = Microsomal metabolic stability; type: in vitro ADME, rat; conditions: for Metabolism rate: RLM 1 mg/mL, 10 μM, 60 min; for half-life at 10 µM / microsomal CLint at 10 µM: rat, rat liver microsomes
Protocol: The metabolic stability of compounds LASSBio‐1971 (1) and LASSBio‐1974 (2) (10 μM) was incubated in 1 mg/mL of rat microsomes in the presence and absence of the cofactor (i.e., NADPH‐generating system) at the same concentrations as in the previous section. After mixing and incubating at 37°C in a shaking water bath for 1 h, 500 µL cold acetonitrile containing the internal standard was added to terminate the reaction at different time intervals (0, 15, 30, 45, and 60 min).

[7] = tested on: NCI‐H1975 (EGFRL858R/T790M); experiment: Cell viability by MTT assay, NCI-H1975; conditions: Homo sapiens; for IC50: read-out: cytotoxic activity, NCI-H1975 (EGFRL858R/T790M)
Protocol: as §3, §5

EGFR in PC‐9 (EGFRL858R) = experiment: EGFR activation by flow cytometry (Muse EGFR‐RTK Activation Dual Detection Kit); type: cell-based, human; conditions: PC‐9, at respective CC50, compared to vehicle (DMSO 1%)
Protocol: as §1

EGFRwt = tested on: EGFRwt; design: method as in PMID 30626888; conditions: in vitro enzymatic model; cited from earlier work
PC‐9 (EGFRL858R) [8] = experiment: Cell cycle by flow cytometry (Muse Cell Cycle Kit); type: cell-based, human; conditions: PC‐9, 24 h, 1 µM
Protocol: as §1

PAMPA‐BBB = type: in vitro ADME; conditions: PAMPA‐BBB
Protocol: as §2

NCI‐H292 (EGFRwt) [9] = experiment: Cell viability by MTT assay, NCI-H292; conditions: for IC50: read-out: cytotoxic activity, NCI-H292 (EGFRw.t.)
Protocol: as §3, §5

NCI‐H292 (EGFRwt) [10] = experiment: Cell viability by sulforhodamine B (SRB) assay, NCI-H292; conditions: Homo sapiens, NCI-H292, 72 h, read-out: cytotoxic activity CC50, NCI‐H292 (EGFRwt)
Protocol: as §3, §4

[11] = RLM, NADPH regenerator system: Absence
[12] = RLM, NADPH regenerator system: Presence

C=CC(=O)Nc1ccc2ncc(NC(=O)Nc3ccccc3)nc2c1 [LASSBio‐1971 (1)]
CC50 [1]: 18.5 µM | apoptosis phenotype induction (PC‐9 (EGFRL858R) [2]): could not induce an apoptosis phenotype | IC50 (PC‐9 (EGFRL858R) [3]; 24 h): 6.42 µM | IC50 (PC‐9 (EGFRL858R) [3]; 48 h): 0.14 µM | CC50 (PC‐9 (EGFRL858R) [3]; 72 h, read-out: cytotoxic activity CC50, PC‐9 (EGFRL858R)): 0.13 µM | CC50 (PC‐9 (EGFRL858R) [4]): 1.02 µM | Classification GIT (PAMPA‐GIT): High (high intestinal permeability (70%–100%)) | Fa (absorbed fraction) (PAMPA‐GIT): 94.62% | Papp (PAMPA‐GIT; mean ± standard deviation (n = 3), read-out: Pe. Exp. GIT): 7.69 ± 0.7 ×10⁻⁶ cm/s | IC50 (EGFRL858R/T790M): 1.68 ± 1.51 µM | IC50 (EGFRL858R): 0.018 ± 0.003 µM | covalent adduct formation with glutathione [5]: a covalent adduct between glutathione and LASSBio‐1971 (1) was formed | Metabolism rate ([6]; NADPH regenerator system: Absence): 21.99% | Metabolism rate ([6]; NADPH regenerator system: Presence): 53.93% | Elimination rate constant (k) [6, 11]: 0.0039 | Elimination rate constant (k) [6, 12]: 0.0129 | t 1/2 [6, 12]: 53.72 min | half-life at 10 µM [6, 11]: 178 min | microsomal CLint at 10 µM [6, 11]: 0.975 µL/min/mg | half-life at 10 µM [6, 12]: 53.7 min | microsomal CLint at 10 µM [6, 12]: 3.23 µL/min/mg | IC50 ([7]; NCI-H1975, 24 h): 51.3 µM | IC50 ([7]; NCI-H1975, 48 h): 6.45 µM | CC50 ([7]; NCI-H1975, 72 h, read-out: cytotoxic activity CC50, NCI‐H1975 (EGFRL858R/T790M)): 5.1 µM | inhibition of phosphorylation and activation of EGFR (EGFR in PC‐9 (EGFRL858R)): inhibit phosphorylation | IC50 (EGFRwt): 0.025 ± 0.004 µM | cell cycle arrest phase (PC‐9 (EGFRL858R) [8]): G0/G1 phase arrest | Classification BBB (PAMPA‐BBB): CNS + | Pe. Exp. BBB (PAMPA‐BBB; mean ± standard deviation (n = 3)): 4.16 10^−6 cm/s | Papp (PAMPA‐BBB; mean ± standard deviation (n = 3), read-out: Pe. Exp. BBB): 4.16 ± 1.84 ×10⁻⁶ cm/s | IC50 (NCI‐H292 (EGFRwt) [9]; Homo sapiens, NCI-H292, 24 h): 18.4 µM | IC50 (NCI‐H292 (EGFRwt) [9]; Homo sapiens, NCI-H292, 48 h): 8.85 µM | CC50 (NCI‐H292 (EGFRwt) [9]; Homo sapiens, NCI-H292, 72 h, read-out: cytotoxic activity CC50, NCI‐H292 (EGFRwt), MTT, 72 h): 1.5 µM | CC50 (NCI‐H292 (EGFRwt) [9]; read-out: cytotoxic activity CC50, NCI‐H292 (EGFRwt), MTT, 72 h): 1.51 µM | CC50 (NCI‐H292 (EGFRwt) [10]): 4.95 µM
